Data: US10676478B2, “7-(thiazol-5-yl) pyrrolopyrimidine compound as TLR7 agonist” (CHIA TAI TIANQING PHARMACEUTICAL GROUP CO., LTD., priority 2015, dated 2020)
Like-named read-outs stand apart in the source and are kept apart here.

Columns and labels:
[1] = Pharmacokinetics assay in rat; type: in vivo, SD rats; design: Mean plasma drug concentration: unit not given here; conditions: for Cmax: read-out: C0 or Cmax; for half-life: read-out: T½ (converted)
Procedure: Experimental Example 2: Pharmacokinetics Assay in Rat
12 male SD rats were divided into 4 groups with 3 SD rats in each group. 2 groups of animals were administered by intravenous injection (IV) 1 mg/kg of the control Toll-like receptor 7 agonist GS-9620 and Example 1 compound as 10% hydroxypropyl-β-cyclodextrin aqueous solution (concentration is 0.5 mg/mL), respectively. The other 2 groups were administered orally (PO) 5 mg/kg of GS-9620 and 3 mg/kg of Example 1 compound as 0.5% methylcellulose/0.2% Tween 80 pure water suspension (concentration is 1 mg/mL). […] Each rat with oral administration was collected for whole blood samples which were prepared into plasma 15, 30 min and 1, 2, 4, 8, 24 h continuously after administration. The plasma concentrations of GS-9620 and Example 1 compound were determined with LC-MS/MS.

[2] = target: T1, Toll-like receptor 8 (HEK-blue hTLR8 cell) (Homo sapiens, UniProt Q9NR97); assay: Toll-like receptor 8 in vitro receptor binding activity (HEK-blue hTLR8 cell, Quanti-Blue alkaline phosphatase reporter); type: cell-based; conditions: 24 h incubation, read-out: TLR8 EC50
T1 construct: host or cells: HEK-blue hTLR8 cell (HEK293-derived reporter line)
T1 sequence (Q9NR97 27-1041): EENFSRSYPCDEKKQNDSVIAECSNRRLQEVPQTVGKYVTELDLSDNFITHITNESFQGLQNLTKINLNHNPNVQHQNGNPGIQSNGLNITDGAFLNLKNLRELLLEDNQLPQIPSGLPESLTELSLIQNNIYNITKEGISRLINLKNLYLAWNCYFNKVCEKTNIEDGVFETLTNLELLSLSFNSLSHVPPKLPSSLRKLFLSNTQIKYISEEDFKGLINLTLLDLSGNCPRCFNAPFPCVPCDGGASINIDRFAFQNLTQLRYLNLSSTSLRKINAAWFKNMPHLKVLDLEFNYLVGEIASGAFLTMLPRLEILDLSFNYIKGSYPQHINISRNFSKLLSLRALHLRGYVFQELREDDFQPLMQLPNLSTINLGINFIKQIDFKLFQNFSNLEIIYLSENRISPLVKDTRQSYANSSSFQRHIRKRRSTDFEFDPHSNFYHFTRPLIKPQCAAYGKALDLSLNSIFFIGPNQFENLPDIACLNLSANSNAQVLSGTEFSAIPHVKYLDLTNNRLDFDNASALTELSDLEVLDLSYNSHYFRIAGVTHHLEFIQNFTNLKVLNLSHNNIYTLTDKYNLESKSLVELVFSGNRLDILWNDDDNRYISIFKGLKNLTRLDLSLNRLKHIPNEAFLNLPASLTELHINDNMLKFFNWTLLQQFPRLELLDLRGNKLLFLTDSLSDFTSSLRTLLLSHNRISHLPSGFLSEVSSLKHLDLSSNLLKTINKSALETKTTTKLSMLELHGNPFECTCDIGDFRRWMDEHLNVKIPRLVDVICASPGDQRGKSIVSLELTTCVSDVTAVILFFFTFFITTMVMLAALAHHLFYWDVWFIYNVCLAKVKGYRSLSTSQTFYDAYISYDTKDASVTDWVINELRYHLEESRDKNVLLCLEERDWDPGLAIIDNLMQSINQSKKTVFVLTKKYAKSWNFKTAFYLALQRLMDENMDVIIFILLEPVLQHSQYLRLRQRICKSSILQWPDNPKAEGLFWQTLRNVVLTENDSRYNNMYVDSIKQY
Procedure: (§1) Experimental Example 1: Toll-Like Receptor 7 and Toll-Like Receptor 8 In Vitro Receptor Binding Activity
(§2) HEK-blue hTLR7 cell and HEK-blue hTLR8 cell (available from InvivoGen)
(§3) The GS-9620 and R848 used have the following structures. GS-9620 can be prepared according the process disclosed in US20100143301; R848 is purchased from ABGENT (Catalog: IMG-2208, 0.5 mg).
(§4) The compounds were gradient diluted with DMSO in 3-fold using liquid work station POD starting at a concentration of 10 mmol/L and 10 points were diluted (2nd column to 11th column, and each point was duplicated). At 12th column, 1 μL of 5 mg/mL positive compound R848 was added as positive control; and at 1 st column, 1 μL of DMSO was added as negative control. Each well contained 1 μL of DMSO.
(§5) 2. The cells in cell culture flask were collected and the cell density was diluted to 250,000 cells/mL.
(§6) 3. 200 μL (50,000 cells/well) of cell suspension was added into prepared compound plate and the final concentration of DMSO in each well was 0.5%.
(§7) 4. The culture plates containing cells and the compounds were incubated in CO2 incubator for 24 h at 37° C., 5% CO2.
(§8) 5. After 24 h incubation, 20 μL of supernatant was removed from each well of the cell culture plates to a 96-well transparent assay plate. […]
(§9) 6. After 1 h, the content of alkaline phosphatase in 20 μL of supernatant was determined using Microplate Reader at OD650. […]

[3] = target: T2, Toll-like receptor 7 (HEK-blue hTLR7 cell) (Homo sapiens, UniProt Q9NYK1); assay: Toll-like receptor 7 in vitro receptor binding activity (HEK-blue hTLR7 cell, Quanti-Blue alkaline phosphatase reporter); type: cell-based; conditions: 24 h incubation, read-out: TLR7 EC50
T2 construct: host or cells: HEK-blue hTLR7 cell (HEK293-derived reporter line)
T2 sequence (Q9NYK1 27-1049): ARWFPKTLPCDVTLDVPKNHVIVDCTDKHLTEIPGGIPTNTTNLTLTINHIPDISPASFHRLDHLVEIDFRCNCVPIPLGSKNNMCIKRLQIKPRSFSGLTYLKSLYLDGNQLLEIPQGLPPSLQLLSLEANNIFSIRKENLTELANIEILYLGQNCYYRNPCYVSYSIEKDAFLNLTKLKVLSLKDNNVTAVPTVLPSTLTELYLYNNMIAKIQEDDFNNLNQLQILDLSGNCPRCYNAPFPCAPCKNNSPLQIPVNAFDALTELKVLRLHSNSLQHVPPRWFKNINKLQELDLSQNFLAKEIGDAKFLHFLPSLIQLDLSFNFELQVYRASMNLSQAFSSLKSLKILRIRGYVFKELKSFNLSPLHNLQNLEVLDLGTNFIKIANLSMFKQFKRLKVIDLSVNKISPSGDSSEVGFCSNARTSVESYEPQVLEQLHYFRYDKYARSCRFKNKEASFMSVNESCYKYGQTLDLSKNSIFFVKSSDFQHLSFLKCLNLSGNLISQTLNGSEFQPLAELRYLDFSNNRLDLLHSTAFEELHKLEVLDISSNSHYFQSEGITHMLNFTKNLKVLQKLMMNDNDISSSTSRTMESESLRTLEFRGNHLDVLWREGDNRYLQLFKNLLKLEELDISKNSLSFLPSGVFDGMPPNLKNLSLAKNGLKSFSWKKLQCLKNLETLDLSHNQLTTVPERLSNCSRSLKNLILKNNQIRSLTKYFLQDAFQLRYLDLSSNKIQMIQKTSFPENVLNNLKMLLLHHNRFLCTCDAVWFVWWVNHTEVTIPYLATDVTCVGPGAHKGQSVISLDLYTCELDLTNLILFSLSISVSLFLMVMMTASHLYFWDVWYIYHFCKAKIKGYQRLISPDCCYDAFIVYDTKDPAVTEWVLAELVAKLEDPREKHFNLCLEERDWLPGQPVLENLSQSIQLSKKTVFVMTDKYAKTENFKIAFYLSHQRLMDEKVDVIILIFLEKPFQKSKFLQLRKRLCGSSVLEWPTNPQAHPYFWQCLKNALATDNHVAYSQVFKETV
Procedure: as §1, §2, §3, §4, §5, §6, §7, §8, §9

[4] = male, SD, plasma, 1 mg/kg, IV 1 mpk
[5] = male, SD, plasma, 3 mg/kg, PO 3 mpk

CCCCOc1nc(N)c2c(n1)N(Cc1cccc(CN3CCCC3)c1)CC(=O)N2 [GS-9620, reference compound]
Mean plasma drug concentration ([1]; IV 1 mpk, time 0.083 h): 170 | Mean plasma drug concentration ([1]; IV 1 mpk, time 0.25 h): 102 | Mean plasma drug concentration ([1]; IV 1 mpk, time 0.5 h): 65.4 | Mean plasma drug concentration ([1]; IV 1 mpk, time 1 h): 48.1 | Mean plasma drug concentration ([1]; IV 1 mpk, time 2 h): 21.6 | Mean plasma drug concentration ([1]; IV 1 mpk, time 4 h): 13 | Mean plasma drug concentration ([1]; IV 1 mpk, time 8 h): 4.17 | Mean plasma drug concentration ([1]; PO 5 mpk, time 0.25 h): 56.3 | Mean plasma drug concentration ([1]; PO 5 mpk, time 0.5 h): 33.2 | Mean plasma drug concentration ([1]; PO 5 mpk, time 1 h): 83.4 | Mean plasma drug concentration ([1]; PO 5 mpk, time 2 h): 136 | Mean plasma drug concentration ([1]; PO 5 mpk, time 4 h): 16.7 | Mean plasma drug concentration ([1]; PO 5 mpk, time 8 h): 9.49

CCCCOc1nc(N)c2[nH]cc(Cc3cnc(CN4CCCC4)s3)c2n1 [Example 1, 2-butoxy-7-((2-(pyrrolidin-1-ylmethyl)thiazol-5-yl)methyl)-5H-pyrrolo[3,2-d]pyrimidin-4-amine]
EC50 [2]: 29.3 µM | Mean plasma drug concentration ([1]; IV 1 mpk, time 0.083 h): 500 | Mean plasma drug concentration ([1]; IV 1 mpk, time 0.25 h): 277 | Mean plasma drug concentration ([1]; IV 1 mpk, time 0.5 h): 197 | Mean plasma drug concentration ([1]; IV 1 mpk, time 1 h): 120 | Mean plasma drug concentration ([1]; IV 1 mpk, time 2 h): 66.1 | Mean plasma drug concentration ([1]; IV 1 mpk, time 4 h): 30.6 | Mean plasma drug concentration ([1]; IV 1 mpk, time 8 h): 13.1 | Mean plasma drug concentration ([1]; PO 3 mpk, time 0.25 h): 45.4 | Mean plasma drug concentration ([1]; PO 3 mpk, time 0.5 h): 52.0 | Mean plasma drug concentration ([1]; PO 3 mpk, time 1 h): 86.8 | Mean plasma drug concentration ([1]; PO 3 mpk, time 2 h): 113 | Mean plasma drug concentration ([1]; PO 3 mpk, time 4 h): 23.6 | Mean plasma drug concentration ([1]; PO 3 mpk, time 8 h): 5.64 | AUC(0-inf) [1, 4]: 0.573 µM·h | AUC(0-t) [1, 4]: 0.541 µM·h | clearance [1, 4]: 75.8 mL/min/kg | Cmax [1, 4]: 673 nM | half-life [1, 4]: 3.08 h | Vd ([1]; male, SD, plasma, 1 mg/kg, IV 1 mpk, read-out: Vdss): 13.5 L/kg | AUC(0-inf) [1, 5]: 0.325 µM·h | AUC(0-t) [1, 5]: 0.313 µM·h | Cmax [1, 5]: 148 nM | half-life [1, 5]: 1.54 h | EC50 [3]: 0.454 µM
